Assay results taken from publication PMC3858552, “The discovery of potent ribosomal S6 kinase inhibitors by high-throughput screening and structure-guided drug design” (Oncotarget, 2013).
Read-outs that look alike come from different tables or passages of the source. One block for each compound: values may come before it.

How the values were obtained:
[1] = target: S6K1 (Homo sapiens, UniProt P23443); experiment: S6K1 mobility shift (microfluidic) assay; assay type: biochemical; details: for LE (ligand efficiency): calculated using the mean IC50 values; for activity against S6K1 (in words): benzimidazole / azabenzimidazole oxadiazoles
Protocol: For all compounds from the benzimidazole oxadiazole/azabenzimidazole oxadiazole series, the IC50 values were determined using a microfluidic assay that monitors the separation of a phosphorylated product from its substrate. […] For each compound, a 10 mM stock concentration in 100% DMSO was used.
IC50 values were calculated from a four-parameter logistics fit of percentage inhibition versus concentration using GraphPad Prism 5 (GraphPad Software, Inc., CA, USA).

[2] = tested on: AKT-Ser473; experiment: Electrochemiluminescent ELISA, AKT-Ser473 phosphorylation in intact cells; assay type: cell-based; details: Homo sapiens, electrochemoluminescent ELISA
Protocol: (§1) The human bladder carcinoma cell line HCV29 was obtained from Dr Richard Lamb (University of Liverpool, UK). This cell line has elevated mTORC1 and S6K activity through loss of TSC1 [46] as a result of a missense mutation and TSC2 loss that was confirmed by immunoblotting (data not shown). Cells were cultured in RPMI (Invitrogen, Life Technologies Ltd, Paisley, UK) containing 2 mmol/L glutamine (Invitrogen), and supplemented with non-essential amino acids (Invitrogen) 10% fetal bovine serum (PAA Laboratories Ltd, Yeovil, UK) in 5% CO2 in air at 37 °C. GI50 values (concentrations) causing 50% inhibition of proliferation for tumour cells were determined using a sulforhodamine B assay. Electrochemiluminescent immunoassays (Meso Scale Discovery, Rockville, MD, USA) measuring the inhibition of phosphorylation of RPS6-ser235/236, AKT-Thr308, AKT-Ser473, GSK3b-Ser9 and S6K-Ser421/424 were carried out as described in Raynaud et al..

[3] = tested on: RPS6-ser235/236; experiment: Electrochemiluminescent ELISA, RPS6 Ser235/236 phosphorylation in intact cells; assay type: cell-based; details: Homo sapiens, HCV-29; HCV29 intact cells, 2 hours exposure, n=3; read-out: EC50 for 50% inhibition of RPS6 Ser235/236 phosphorylation
Protocol: as §1

[4] = tested on: S6K-Ser421/424; experiment: Electrochemiluminescent ELISA, S6K-Ser421/424 phosphorylation in intact cells; assay type: cell-based; details: Homo sapiens, electrochemoluminescent ELISA
Protocol: as §1

[5] = tested on: AKT-Thr308; experiment: Electrochemiluminescent ELISA, AKT-Thr308 phosphorylation in intact cells; assay type: cell-based; details: Homo sapiens, electrochemoluminescent ELISA
Protocol: as §1

[6] = target: S6K2 (Homo sapiens, UniProt Q9UBS0); experiment: S6K2 inhibition; assay type: biochemical
[7] = tested on: HCV29 human bladder carcinoma cells; experiment: Sulforhodamine B proliferation assay (GI50); assay type: cell-based; details: HCV-29, 96 hours continuous exposure, read-out: GI50 (50% tumour growth inhibition)
Protocol: as §1

[8] = tested on: GSK3b-Ser9; experiment: Electrochemiluminescent ELISA, GSK3b-Ser9 phosphorylation in intact cells; assay type: cell-based; details: Homo sapiens, electrochemoluminescent ELISA
Protocol: as §1

[9] = target: T1, S6K1 (Homo sapiens, UniProt P23443, T412E); experiment: S6K1 DELFIA phosphorylation assay (IC50 of screening hits); assay type: biochemical; details: for LE (ligand efficiency): calculated using the mean IC50 values; for IC50: repurchased samples
T1 construct: The His-tagged kinase domain of S6K1 (residues 1-421, catalogue number 14-486) used in the HTS; His; purchased Millipore (Upstate/Millipore) 14-486
Protocol: For primary screening hits, IC50 values were determined using a DELFIA® assay that monitors phosphorylation of a S6 peptide using a specific phospho-antibody. The enzyme reaction was carried out in 96 well polypropylene plates (#650261; Greiner Bio-One, Frickenhausen, Germany).
For each compound, a 10mM stock was diluted in water resulting in a 1250 μM solution in 12.5% (v/v) DMSO. Compounds were manually diluted 1 in 3 in 12.5% (v/v) DMSO to give an eight point dilution curve in duplicate. Finally, 5 μL compound solution or 12.5% (v/v) DMSO was transferred to the assay plate resulting in compound assay concentrations of 0.12-250 μM.
Subsequently, 20 μL of reaction reagents were added to the assay plate resulting in final assay concentrations of 1 μM S6 peptide (biotin-[…], synthesised by J. Metcalfe, ICR), 2 nM S6K1 (#14-486; Millipore, Billerica, MA, USA) and 30 μM ATP in assay buffer consisting of 40 mM HEPES pH 7.4, 10 mM MgCl2, 1 mM DTT and 0.02% (v/v) Tween 20. The reaction was incubated for an hour at 37 °C and stopped by the addition of 125 μL buffer comprising 40 mM EDTA, 0.05% (v/v) Tween 20, 0.1% (w/v) BSA in TBS (10x concentrate, Sigma-Aldrich, Gillingham, UK). A 100 μL aliquot of the reaction solution was transferred to a black neutravidin-coated plate (#15117; Perbio/Thermo Scientific, Cramlington, UK) and incubated for an hour on a Titertek shaker (Flow Laboratories, Sutton, UK) at room temperature. The plates were washed four times with WellWash4 wash buffer (Thermo Life Sciences Ltd, Basingstoke, UK) containing 25 mM Tris pH 8, 150 mM NaCl and 0.1% (v/v) Tween 20 and incubated for an hour with 100 μL of an antibody mix consisting of 0.05 nM of an anti-phospho S6 antibody (#2211; Cell Signalling Technology) and 0.18 μg/mL of an europium-labelled anti-rabbit IgG, (#AD0105; PerkinElmer Life Sciences, Waltham, MA, USA) diluted in DELFIA assay buffer (#4002-0010; PerkinElmer Life Sciences). The plates were washed a further four times with WellWash4 wash buffer (Thermo Life Sciences) before the addition of 100 μL Enhancement Solution (#4001-0010; PerkinElmer Life Sciences). The plate was read on an EnVision® 2103 Multilabel Reader (PerkinElmer Life Sciences) using a time-resolved measurement mode reading fluorescence at 615 nm. IC50 values were calculated from a four-parameter logistics fit of percentage inhibition versus concentration using GraphPad Prism 5 (GraphPad Software, Inc., CA, USA).

[10] = Table 4, mobility shift assay, mean ± SD triplicate, or duplicate/single measurement as footnoted, read-out: S6K1 IC50
[11] = Table 6, mobility shift assay, mean ± SD triplicate, or duplicate ± SE / single measurement as footnoted, read-out: S6K1 IC50
[12] = Table 5, mobility shift assay, mean ± SD triplicate, or single measurement as footnoted, read-out: S6K1 IC50
[13] = Table 2, confirmation DELFIA assay, mean ± standard error, duplicate
[14] = Table 3, confirmation DELFIA assay, mean ± standard error, duplicate

Sequence of S6K1 (Homo sapiens, UniProt P23443) (P23443 1-421): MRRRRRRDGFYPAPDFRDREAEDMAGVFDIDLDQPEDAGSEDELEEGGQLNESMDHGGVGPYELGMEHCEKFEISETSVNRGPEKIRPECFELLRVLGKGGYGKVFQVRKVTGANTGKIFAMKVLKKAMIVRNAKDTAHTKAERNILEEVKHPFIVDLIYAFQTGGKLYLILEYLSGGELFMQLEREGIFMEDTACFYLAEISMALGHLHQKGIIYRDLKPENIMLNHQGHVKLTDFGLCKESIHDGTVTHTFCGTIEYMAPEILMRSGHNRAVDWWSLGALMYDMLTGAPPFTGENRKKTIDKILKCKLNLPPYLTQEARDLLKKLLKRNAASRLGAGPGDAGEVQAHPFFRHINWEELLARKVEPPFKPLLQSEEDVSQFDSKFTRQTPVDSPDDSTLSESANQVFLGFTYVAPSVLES
T1 sequence (P23443 1-421 T412E limits assumed): as the sequence (P23443 1-421) above, with T412E counted along it
Sequence of S6K2 (Q9UBS0 whole entry): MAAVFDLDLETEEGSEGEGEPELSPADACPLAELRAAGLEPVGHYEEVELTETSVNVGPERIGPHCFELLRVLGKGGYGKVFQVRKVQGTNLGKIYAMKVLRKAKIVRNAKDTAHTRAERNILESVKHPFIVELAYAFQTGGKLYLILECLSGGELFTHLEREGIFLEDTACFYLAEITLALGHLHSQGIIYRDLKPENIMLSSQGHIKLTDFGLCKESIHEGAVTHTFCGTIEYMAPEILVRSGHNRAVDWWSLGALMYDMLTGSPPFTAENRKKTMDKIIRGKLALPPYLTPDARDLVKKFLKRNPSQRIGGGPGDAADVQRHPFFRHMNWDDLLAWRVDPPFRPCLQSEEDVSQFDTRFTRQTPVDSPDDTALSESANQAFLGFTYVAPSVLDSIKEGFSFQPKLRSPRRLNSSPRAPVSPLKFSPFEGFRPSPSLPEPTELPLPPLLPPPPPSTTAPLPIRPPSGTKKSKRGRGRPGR

- LE (ligand efficiency) ([1]; Table 4): 0.58
- IC50 [1, 10]: 194 nM
- activity against S6K1 (in words) [1]: about six-fold less active
SMILES: Cn1c(-c2nonc2N)nc2ccccc21 [Compound 15a, 4-(1-Methyl-1H-benzoimidazol-2-yl)-1,2,5-oxadiazole-3-ylamine]

SMILES: CCn1c(-c2nonc2N)nc2cnc(N3CCOCC3)cc21 [Compound 21d, 4-(1-Ethyl-6-morpholin-4-yl-1H-imidazo[4,5-c]pyridin-2-yl)-1,2,5-oxadiazole-3-ylamine]
- LE (ligand efficiency) ([1]; Table 6): 0.42
- IC50 [1, 11]: 110 nM

SMILES: CCn1c(-c2nonc2N)nc2cnc(C)cc21 [Compound 21e, 4-(1-Ethyl-6-methyl-1H-imidazo[4,5-c]pyridin-2-yl)-1,2,5-oxadiazole-3-ylamine]
- ligand efficiency [1]: 0.6
- LE (ligand efficiency) ([1]; Table 6): 0.60
- IC50 [1, 11]: 17.4 ± 6 nM
- IC50 [2]: > 15000 nM
- EC50 [3]: 9100 ± 1500 nM
- IC50 [4]: > 15000 nM
- IC50 [5]: > 15000 nM
- IC50 [6]: 300 ± 102 nM
- GI50 [7]: 3500 nM
- IC50 [8]: > 15000 nM

SMILES: CCn1c(-c2nonc2N)nc2cc(-c3ccccc3)ccc21 [Compound 20b, 3-Amino-4-(1-ethyl-5-phenyl-1H-benzimidazol-2-yl)-1,2,5-oxadiazole]
- LE (ligand efficiency) ([1]; Table 5): 0.35
- IC50 [1, 12]: 1640 ± 530 nM

- LE (ligand efficiency) ([1]; Table 4): 0.59
- IC50 [1, 10]: 59.8 ± 32.4 nM
SMILES: CCn1c(-c2nonc2N)nc2ccccc21 [Compound 15b, 4-(1-Ethyl-1H-benzoimidazol-2-yl)-1,2,5-oxadiazole-3-ylamine]

SMILES: O=c1c2ccccc2nc(-c2cccnc2)n1-c1ccc(Br)cn1 [Compound 7]
- LE (ligand efficiency) ([9]; Table 2): 0.38
- IC50 [9, 13]: 260 ± 150 nM

SMILES: CCn1c(-c2nonc2N)nc2cc(NC)ccc21 [Compound 20e, 3-Amino-4-(1-ethyl-5-methylamino-1H-benzimidazol-2-yl)-1,2,5-oxadiazole]
- LE (ligand efficiency) ([1]; Table 5): 0.50
- IC50 [1, 12]: 148 nM

- IC50 ([9]; HTS hits): 7000 nM
- LE (ligand efficiency) ([9]; Table 3): 0.40
- IC50 [9, 14]: 6980 ± 2070 nM
SMILES: C=CCn1c(-c2nonc2N)nc2ccccc21 [Compound 11]

SMILES: Cc1ccc(-n2c(-c3ccccn3)nc3ccccc3c2=O)cc1 [Compound 8]
- LE (ligand efficiency) ([9]; Table 2): 0.33
- IC50 [9, 13]: 1550 ± 920 nM

SMILES: CCn1c(-c2nonc2N)nc2cnc(Br)cc21 [Compound 21a, 3-Amino-4-(6-bromo-1-ethyl-1H-imidazo[4,5-c]pyridin-2-yl)-1,2,5-oxadiazole]
- LE (ligand efficiency) ([1]; Table 6): 0.59
- IC50 [1, 11]: 19.7 ± 2.6 nM

SMILES: CCn1c(-c2nonc2N)nc2cccc(-c3cccnc3)c21 [Compound 20g, 3-Amino-4-(7-(3-pyridinyl)-1-ethyl-1H-benzimidazol-2-yl)-1,2,5-oxadiazole]
- LE (ligand efficiency) ([1]; Table 5): 0.39
- IC50 [1, 12]: 352 ± 173 nM

SMILES: CCn1c(-c2nonc2N)nc2cccc(Br)c21 [Compound 20f, 3-Amino-4-(7-bromo-1-ethyl-1H-benzimidazol-2-yl)-1,2,5-oxadiazole]
- LE (ligand efficiency) ([1]; Table 5): 0.50
- IC50 [1, 12]: 303 ± 21 nM

- LE (ligand efficiency) ([1]; Table 4): 0.57
- IC50 [1, 10]: 36.6 ± 7 nM
SMILES: Nc1nonc1-c1nc2ccccc2n1C1CC1 [Compound 15c, 4-(1-Cyclopropyl-1H-benzoimidazol-2-yl)-1,2,5-oxadiazole-3-ylamine]

SMILES: CCn1c(-c2nonc2N)nc2cc(OC)ccc21 [Compound 20d, 3-Amino-4-(1-ethyl-5-methoxy-1H-benzimidazol-2-yl)-1,2,5-oxadiazole]
- LE (ligand efficiency) ([1]; Table 5): 0.52
- IC50 [1, 12]: 63.4 nM

SMILES: CCn1c(-c2nonc2N)nc2cnc(Oc3cccc(S(C)(=O)=O)c3)cc21 [Compound 21b, 4-[1-Ethyl-6-(3-methanesulfonyl-phenoxy)-1H-imidazo[4,5-c]pyridin-2-yl]-1,2,5-oxadiazole-3-ylamine]
- LE (ligand efficiency) ([1]; Table 6): 0.34
- IC50 [1, 11]: 103 ± 23 nM

SMILES: CC(=O)Nc1nonc1-c1nc2ccccc2n1C1CC1 [Compound 16, N-[4-(1-Cyclopropyl-1H-benzoimidazol->2-yl)-1,2,5-oxadiazole-3-yl]-acetamide]
- IC50 ([1]; acetylated aminooxadiazole, read-out: S6K IC50): > 100000 nM

- LE (ligand efficiency) ([9]; Table 3): 0.50
- IC50 [9, 14]: 340 ± 140 nM
SMILES: CC(C)n1c(-c2nonc2N)nc2ccccc21 [Compound 10]

SMILES: CCn1c(-c2nonc2N)nc2cc(C3CC3)ccc21 [Compound 20c, 3-Amino-4-(5-cyclopropyl-1-ethyl-1H-benzimidazol-2-yl)-1,2,5-oxadiazole]
- LE (ligand efficiency) ([1]; Table 5): 0.45
- IC50 [1, 12]: 334 ± 25.1 nM

SMILES: CCn1c(-c2nonc2N)nc2cc(Br)ccc21 [Compound 20a, 3-Amino-4-(5-bromo-1-ethyl-1H-benzimidazol-2-yl)-1,2,5-oxadiazole]
- LE (ligand efficiency) ([1]; Table 5): 0.55
- IC50 [1, 12]: 66.4 ± 5.6 nM

- LE (ligand efficiency) ([1]; Table 4): 0.56
- IC50 [1, 10]: 19.8 nM
SMILES: Nc1nonc1-c1nc2ccccc2n1CC1CC1 [Compound 15e, 4-(1-Cyclopropylmethyl-1H-benzoimidazol-2-yl)-1,2,5-oxadiazole-3-ylamine]

SMILES: O=c1c2ccccc2nc(-c2ccccn2)n1-c1ccccc1 [Compound 9]
- LE (ligand efficiency) ([9]; Table 2): 0.33
- IC50 [9, 13]: 2970 ± 1530 nM

SMILES: CCn1c(-c2nonc2N)nc2cnc(-c3ccccc3)cc21 [Compound 21c, 4-(1-Ethyl-6-phenyl-1H-imidazo[4,5-c]pyridin-2-yl)-1,2,5-oxadiazole-3-ylamine]
- IC50 [1, 11]: > 100000 nM
- activity against S6K1 (in words) [1]: abolished all affinity for S6K1

SMILES: Nc1nonc1-c1nc2ccccc2n1Cc1ccccc1 [Compound 15d, 4-(1-Benzyl-1H-benzoimidazol-2-yl)-1,2,5-oxadiazole-3-ylamine]
- IC50 [1, 10]: > 100000 nM
- activity against S6K1 (in words) [1]: complete loss of biochemical activity
